Where two headings read alike, the source gives them in different places.
Experiments:
[1] = system: HOS cells; assay: cytotoxicity assay (ATP-Lite cell viability); assay type: cell-based, human; conditions: ratio of CC50/EC50 (WT)
Experimental: (§1) One day prior to treatment, HOS cells were prepared in 96-well plates as described for the infectivity assays, except that 12 wells per plate were treated with cell-free media to serve as negative controls. The following day, serial dilutions of drug stocks were prepared in media from 10 mM stocks in DMSO. Each well received 11 μL of the appropriate drug concentration or DMSO-treated, drug-free media. Final drug concentrations ranged from 0.5 μM to 300 μM. The drug-free wells served as references. Plates were then incubated at 37°C for 48 hours. Cell viability was determined using luciferase reporter ATP-Lite kits (PerkinElmer). As described for the infectivity assays, drug-free reference wells were normalized to 100%, and viabilities at different drug concentrations were determined as a percentage of these references. Data were plotted and analyzed in the same manner as the IC50 data, with the inflection points of the curves reported as CC50.

[2] = system: viral vectors that replicate using WT HIV reverse transcriptase; assay: single-round infectivity assay, luciferase reporter, vector with WT RT; assay type: cell-based, HIV-1; conditions: SD in parentheses
From the text: (§2) We examined the effects of rilpivirine and the analogues on HIV-1 replication using a previously described assay and report the concentrations at which luciferase reporter activity was reduced by half relative to uninhibited controls (EC50) with standard deviations in parentheses. In the assay, viral vectors that replicate using WT HIV reverse transcriptase or one of several mutants (L100I, K103N, V106A, E138K, Y181C, Y188L, H221Y and the double mutant K103N/Y181C) were used to infect cells in a single round assay. These mutants were chosen either because they are known NNRTI resistance mutations (L100I, K103N, Y181C, and the K103N/Y181C double mutant), they were selected in patients in rilpivirine clinical trials (E138K and H221Y), or they are positioned to make significant Van der Waals contacts with rilpivirine (V106A and Y188L). All compounds were initially screened against a panel that included at least one RT mutant from all three groups (WT, K103N, E138K, Y181C and Y188L). The cytotoxicity of the compounds was also determined to establish the therapeutic index of each of the compounds.
(§3) Procedures for virion production and cell-based assay have been reported. Briefly, all cell cultures were maintained in Dulbecco’s modified Eagle’s medium (Invitrogen, Carlsbad, CA) with 5% (v/v) fetal bovine serum, 5% newborn calf serum, penicillin (50 units/mL) and streptomycin (50 μg/mL) (Quality Biological, Gaithersburg, MD). […]. Transfected cells were incubated at 37°C for 8 hrs, washed twice with PBS, fresh media was added and the cells were returned to the incubator for 48 hrs. The pNLNgoMIVR^+ΔEnv.LUC plasmid encodes the HIV-1 genome with an Env deletion and either WT HIV-1 RT, or one of the following mutants: L100I, K103N, V106A, E138K, Y181C, Y188L, H221Y, or K103N/Y181C. Supernatants from each plate were clarified by low-speed centrifugation (3,000xg for 20 min), then treated with 200 U DNase I (Roche Applied Science, Mannheim, Germany) at room temperature for 3 hours. Viral supernatants were stored at −20°C until used.
(§4) One day prior to infection, 100 μL of human osteosarcoma (HOS) cells were added to each well of a 96-well plate at a density of 4x10^4 cells/mL. Plates were incubated overnight at 37°C. On the day of infection, 10X drug stocks were prepared by serial dilution in media from an initial 10 mM stock solution in DMSO. Cells in the 96-well plate were pre-treated by the addition of 22 μL of the appropriate drug stock and returned to the incubator for 3 hours. Thawed virus stocks were diluted 1:2 in media, then 100 μL of virus was added to the pre-treated cells, bringing the final drug concentrations to 0.1 nM to 100 nM, with DMSO-treated cells (no drug) serving as a reference. In addition, 12 wells of cells treated with media and no virus served as negative controls. Plates were returned to the incubator for an additional 42 hours, at which time the luciferase activity was determined using Steady-Lite Plus kits (PerkinElmer, Waltham, MA). Background luciferase activity, as measured for the negative controls, was subtracted from the activities measured for each infected well. Drug-free, DMSO-treated wells were normalized to 100% infectivity. Infectivity at each drug concentration was determined as a percentage of these drug-free infections. Drug concentration versus percent infectivity was plotted for each RT-inhibitor combination, and the data were fit to a four-parameter sigmoidal curve using KaleidaGraph 4.0 (Synergy Software, Reading, PA). The inflection point of each curve is reported as the IC50. All values are the mean of triplicate infections.

[3] = system: viral vector with K103N mutant HIV-1 RT; assay: single-round infectivity assay, luciferase reporter, K103N RT vector; assay type: cell-based; conditions: Human immunodeficiency virus 1; HOS cells, reduction of luciferase reporter activity, SD in parentheses
From the text: as §2, §3, §4

[4] = system: viral vector with L100I mutant HIV-1 RT; assay: single-round infectivity assay, luciferase reporter, L100I RT vector; assay type: cell-based; conditions: Human immunodeficiency virus 1; broader panel, SD in parentheses
From the text: as §2, §3, §4

[5] = system: viral vector with E138K mutant HIV-1 RT; assay: single-round infectivity assay, luciferase reporter, E138K RT vector; assay type: cell-based; conditions: for EC50: Human immunodeficiency virus 1, HOS cells, reduction of luciferase reporter activity, SD in parentheses
From the text: as §2, §3, §4

[6] = system: viral vector with Y181C mutant HIV-1 RT; assay: single-round infectivity assay, luciferase reporter, Y181C RT vector; assay type: cell-based; conditions: Human immunodeficiency virus 1; HOS cells, reduction of luciferase reporter activity, SD in parentheses
From the text: as §2, §3, §4

[7] = system: viral vector with K103N/Y181C double mutant HIV-1 RT; assay: single-round infectivity assay, luciferase reporter, K103N/Y181C RT vector; assay type: cell-based; conditions: Human immunodeficiency virus 1; broader panel, SD in parentheses
From the text: as §2, §3, §4

[8] = system: viral vector with H221Y mutant HIV-1 RT; assay: single-round infectivity assay, luciferase reporter, H221Y RT vector; assay type: cell-based; conditions: Human immunodeficiency virus 1; broader panel, SD in parentheses
From the text: as §2, §3, §4

[9] = system: viral vector with Y188L mutant HIV-1 RT; assay: single-round infectivity assay, luciferase reporter, Y188L RT vector; assay type: cell-based; conditions: for EC50: Human immunodeficiency virus 1, HOS cells, reduction of luciferase reporter activity, SD in parentheses
From the text: as §2, §3, §4

[10] = system: viral vector with V106A mutant HIV-1 RT; assay: single-round infectivity assay, luciferase reporter, V106A RT vector; assay type: cell-based; conditions: Human immunodeficiency virus 1; broader panel, SD in parentheses
From the text: as §2, §3, §4

[11] = cytotoxicity assay (ATP-Lite cell viability); assay type: cell-based, human; conditions: human, HOS cells, 48 hours, SD in parentheses
Experimental: as §1

[12] = Human immunodeficiency virus 1, broader panel table, read-out: EC50 WT (Table S1)
[13] = Human immunodeficiency virus 1, HOS, HOS cells, reduction of luciferase reporter activity, read-out: EC50 WT

| SMILES | Therapeutic Index (T.I.) [1] | EC50 [2, 12] | EC50 [3] | EC50 [4] | EC50 [5] | EC50 [6] | EC50 [7] | EC50 [8] | EC50 [9] | EC50 [10] | CC50 at 48 h [11] | EC50 [2, 13] | loss of potency against E138K ([5]; compared with rilpivirine (1)) | loss of potency against Y188L ([9]; compared with rilpivirine (1)) | EC50 ([2]; HOS cells, reduction of luciferase reporter activity, read-out: EC50 WT) |
| --- | --- | --- | --- | --- | --- | --- | --- | --- | --- | --- | --- | --- | --- | --- | --- |
| Cc1cc(/C=C/C#N)cc(C)c1Nc1ncc([N+](=O)[O-])c(Nc2ccc(C#N)cc2)n1 [Analogue 8] | 1.0x10^5 | 0.9 nM | 1 nM | 0.2 nM | 4.9 nM | 5.3 nM | 86 nM | 2.6 nM | 13 nM | 0.3 nM |  |  |  |  |  |
| COc1ccc(Cn2cnc3c(Nc4c(C)cc(/C=C/C#N)cc4C)nc(Nc4ccc(C#N)cc4)nc32)cc1 [Analogue 10] | 1.4x10^5 |  | 1 nM |  | 14 nM | 9.5 nM |  |  | > 100 nM |  | 154000 nM | 1.1 nM |  |  |  |
| Cc1cc(/C=C/C#N)cc(C)c1Nc1nc(Nc2ccc(C#N)cc2)nc2[nH]cnc12 [Analogue 11] | 1.2x10^6 | 0.1 nM | 0.1 nM | < 0.1 nM | 2.9 nM | 0.5 nM | 1.2 nM | 0.4 nM | 13 ± 0.5 nM | 0.4 nM |  |  | four- to fourteen-fold | nearly six-fold |  |
| COc1ccc(Cn2cnc3c(Nc4ccc(C#N)cc4)nc(Nc4c(C)cc(/C=C/C#N)cc4C)nc32)cc1 [Analogue 12] | 3.1x10^4 |  | 1.9 nM |  | 15 nM | 6.5 nM |  |  | 12 nM |  | 83000 nM | 2.7 nM |  |  |  |
| CC(=O)c1ccc(Nc2nc(Nc3c(C)cc(/C=C/C#N)cc3C)nc3[nH]cnc23)cc1 [Analogue 14] | 2.7x10^4 |  | 0.3 nM |  | 1.5 nM | 5.9 nM |  |  | 64 nM |  | 8000 nM | 0.3 nM |  |  |  |
| Cc1cc(/C=C/C#N)cc(C)c1Nc1nc(Nc2ccc(C(F)(F)F)cc2)c2nc[nH]c2n1 [Analogue 15] | 1.1x10^4 |  | 0.9 nM |  | 4.7 nM | 3.3 nM |  |  | 17 nM |  | 17000 nM | 1.5 nM |  |  |  |
| COc1ccc(Nc2nc(Nc3c(C)cc(/C=C/C#N)cc3C)nc3[nH]cnc23)cc1 [Analogue 16] | 6.0x10^4 |  | 0.2 nM |  | 1.1 nM | 2.3 nM |  |  | 29 nM |  | 12000 nM | 0.2 nM |  |  | 0.4 nM |
| Cc1cc(/C=C/C#N)cc(C)c1Nc1nc(Nc2ccc(F)cc2)c2nc[nH]c2n1 [Analogue 17] | 7.1x10^3 |  | 1.3 nM |  | 3.1 nM | 2 nM |  |  | 15 nM |  | 12000 nM | 1.7 nM |  |  |  |
| Cc1cc(/C=C/C#N)cc(C)c1Nc1nc(Nc2cc(F)cc(F)c2)c2nc[nH]c2n1 [Analogue 18] | 1.4x10^3 |  | 4.9 nM |  | 28 nM | 56 nM |  |  | > 100 nM |  | 13000 nM | 9.3 nM |  |  |  |
| Cc1cc(/C=C/C#N)cc(C)c1Nc1nc(Nc2ccccn2)c2nc[nH]c2n1 [Analogue 19] | < 3.6x10^2 |  | > 100 nM |  | > 100 nM | > 100 nM |  |  | > 100 nM |  | 36000 nM | > 100 nM |  |  |  |
| Cc1nc2cc(Nc3nc(Nc4c(C)cc(/C=C/C#N)cc4C)nc4[nH]cnc34)ccc2s1 [Analogue 22] | 9.5x10^4 |  | 2.2 nM |  | 8.3 nM | 6.1 nM |  |  | > 100 nM |  | 57000 nM | 0.6 nM |  |  |  |
| Cc1cc(/C=C/C#N)cc(C)c1Nc1nc(Nc2ccc3c(c2)CCC3)c2nc[nH]c2n1 [Analogue 23] | 7.5x10^4 |  | 1.7 nM |  | 7.9 nM | 4.1 nM |  |  | > 100 nM |  | 30000 nM | 0.4 nM |  |  |  |
| Cc1cc(/C=C/C#N)cc(C)c1Nc1nc(Nc2ccc3c(c2)OCO3)c2nc[nH]c2n1 [Analogue 24] | 1.9x10^5 |  | 0.6 nM |  | 1.6 nM | 3 nM |  |  | 23 nM |  | 19000 nM | 0.1 nM |  |  |  |
| Cc1cc(/C=C/C#N)cc(C)c1Nc1nc(Nc2ccc3nn[nH]c3c2)c2nc[nH]c2n1 [Analogue 25] | 5.3x10^3 |  | > 100 nM |  | > 100 nM | > 100 nM |  |  | > 100 nM |  | 100000 nM | 19 nM |  |  |  |
